# Laboratory results taken from ChEMBL document CHEMBL1914322, “Novel terpenoids of the fungus Aspergillus insuetus isolated from the Mediterranean sponge Psammocinia sp. collected along the coast of Israel” (2011).
# Calls of active or inactive are those of the source. No cut-off for these calls is given here.
# Legend:
# [1] = system: Neurospora crassa; experiment: Antifungal activity against Neurospora crassa 74-OR23-1A after 12 hrs; format: functional
# [2] = system: MOLT-4; experiment: Cytotoxicity against human MOLT4 cells at […]; format: functional
MIC [1],SMILES,inhibition [2]
162 µM,CC(O)C(O)/C=C/C=C/C(=O)O[C@@H]1C=C2COC(=O)[C@]2(O)[C@@]2(C)CCCC(C)(C)[C@H]12 (stereo not given in full),
140 µM,CC1(C)OC(=O)C=C[C@]2(C)[C@@H]3C[C@@]4(C)C(=O)[C@@]5(C)C[C@@H]6C(=O)OC[C@@]64O[C@@]3(CC[C@@H]12)C5 [INSUETOLIDE A],inactive
242 µM,CC1(C)CCC[C@@]2(C)[C@H]1[C@H](O)C=C1COC(=O)[C@@]12O [STROBILACTONE A],inactive
